Like-named read-outs stand apart in the source and are kept apart here.
Columns and labels:
Format in all cases: in vivo
[1] = test system: redroot pigweed (Amaranthus retroflexus); assay: Test A pre/postemergence; settings: Amaranthus retroflexus, 240 h, read-out: Plant response rating, Pigweed; for pest or weed control at 125 g/ha: 125 g ai/ha; for pest or weed control at 500 g/ha: 500 g ai/ha
Method in brief: (§1)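 Greenhouse herbicide test with preemergence directed soil spray and postemergence foliar spray at the 1- to 2-leaf stage; visual control rating 0–100 versus untreated at ~10 days.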

[2] = test system: crabgrass (Digitaria sanguinalis); assay: Test A pre/postemergence; settings: Digitaria sanguinalis, 240 h, read-out: Plant response rating, Crabgrass; for pest or weed control at 125 g/ha: 125 g ai/ha; for pest or weed control at 500 g/ha: 500 g ai/ha
Method in brief: as §1

[3] = test system: barnyardgrass (Echinochloa crus-galli); assay: Test A pre/postemergence; settings: Echinochloa crus-galli, 240 h, read-out: Plant response rating, Barnyardgrass; for pest or weed control at 125 g/ha: 125 g ai/ha; for pest or weed control at 500 g/ha: 500 g ai/ha
Method in brief: as §1

[4] = test system: morningglory (Ipomoea spp.); assay: Test A pre/postemergence; settings: Ipomoea, 240 h, read-out: Plant response rating, Morningglory; for pest or weed control at 125 g/ha: 125 g ai/ha; for pest or weed control at 500 g/ha: 500 g ai/ha
Method in brief: as §1

[5] = test system: velvetleaf (Abutilon theophrasti); assay: Test A pre/postemergence; settings: Abutilon theophrasti, 240 h, read-out: Plant response rating, Velvetleaf; for pest or weed control at 125 g/ha: 125 g ai/ha; for pest or weed control at 500 g/ha: 500 g ai/ha
Method in brief: as §1

[6] = test system: giant foxtail (Setaria faberi); assay: Test A pre/postemergence; settings: Setaria faberi, 240 h, read-out: Plant response rating, Foxtail, Giant; for pest or weed control at 125 g/ha: 125 g ai/ha; for pest or weed control at 500 g/ha: 500 g ai/ha
Method in brief: as §1

[7] = test system: bermudagrass (Cynodon dactylon); assay: Test C pre/postemergence; settings: Cynodon dactylon, post-emergence, Postemergence
Method in brief: (§2)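 We sprayed seeded pots preemergence and 2–18 cm seedlings postemergence with test chemicals in a non-phytotoxic solvent mixture including surfactant. Greenhouse plants were visually compared with untreated controls at 12 to 14 days and scored 0 (no effect) to 100 (complete control).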

[8] = test system: giant foxtail (Setaria faberii); assay: Test C pre/postemergence; settings: Setaria faberi, post-emergence, Postemergence
Method in brief: as §2

soybean (Glycine max) = assay: Test C pre/postemergence; settings: Glycine max, post-emergence, Postemergence
Method in brief: as §2

[9] = test system: johnsongrass (Sorghum halepense); assay: Test C pre/postemergence; settings: Sorghum halepense, post-emergence, Postemergence
Method in brief: as §2

[10] = post-emergence, Postemergence, 0 to 100 scale (0 no effect, 100 complete control)
[11] = pre-emergence, Preemergence, 0 to 100 scale where 0 is no effect and 100 is complete control, approximately ten days

CCOC(=O)c1nc(-c2ccc(Br)cc2)nc(N)c1Cl [Compound 94, ethyl 6-amino-2-(4-bromophenyl)-5-chloro-4-pyrimidinecarboxylate]
pest or weed control at 125 g/ha [1, 10]: 80% | pest or weed control at 500 g/ha [1, 10]: 85% | pest or weed control at 125 g/ha [1, 11]: 90% | pest or weed control at 500 g/ha [1, 11]: 95% | pest or weed control at 125 g/ha [2, 10]: 35% | pest or weed control at 500 g/ha [2, 10]: 50% | pest or weed control at 125 g/ha [2, 11]: 45% | pest or weed control at 500 g/ha [2, 11]: 55% | pest or weed control at 125 g/ha [3, 10]: 30% | pest or weed control at 500 g/ha [3, 10]: 60% | pest or weed control at 125 g/ha [3, 11]: 5% | pest or weed control at 500 g/ha [3, 11]: 40% | pest or weed control at 125 g/ha [4, 10]: 70% | pest or weed control at 500 g/ha [4, 10]: 75% | pest or weed control at 125 g/ha [4, 11]: 30% | pest or weed control at 500 g/ha [4, 11]: 35% | pest or weed control at 125 g/ha [5, 10]: 90% | pest or weed control at 500 g/ha [5, 10]: 90% | pest or weed control at 125 g/ha [5, 11]: 75% | pest or weed control at 500 g/ha [5, 11]: 90% | pest or weed control at 125 g/ha [6, 10]: 45% | pest or weed control at 500 g/ha [6, 10]: 65% | pest or weed control at 125 g/ha [6, 11]: 20% | pest or weed control at 500 g/ha [6, 11]: 40% | pest or weed control at 16 g/ha ([7]; 16 g ai/ha, read-out: Plant response rating (scale of 0 to 100), Bermudagrass): 60% | pest or weed control at 31 g/ha ([7]; 31 g ai/ha, read-out: Plant response rating (scale of 0 to 100), Bermudagrass): 70% | pest or weed control at 62 g/ha ([7]; 62 g ai/ha, scale 0 to 100 (0 no effect, 100 complete control), read-out: Bermudagrass plant response rating): 75% | pest or weed control at 125 g/ha ([7]; 125 g ai/ha, scale 0 to 100 (0 no effect, 100 complete control), read-out: Bermudagrass plant response rating): 80% | pest or weed control at 125 g/ha ([8]; 125 g ai/ha, scale 0 to 100 (0 no effect, 100 complete control), read-out: Foxtail, Giant plant response rating): 80% | pest or weed control at 16 g/ha ([8]; 16 g ai/ha, read-out: Plant response rating (scale of 0 to 100), Foxtail, Giant): 30% | pest or weed control at 31 g/ha ([8]; 31 g ai/ha, read-out: Plant response rating (scale of 0 to 100), Foxtail, Giant): 65% | pest or weed control at 62 g/ha ([8]; 62 g ai/ha, read-out: Plant response rating (scale of 0 to 100), Foxtail, Giant): 80% | plant injury at 16 g/ha (soybean (Glycine max); 16 g ai/ha, read-out: Plant response rating (scale of 0 to 100), Soybean): 100% | plant injury at 31 g/ha (soybean (Glycine max); 31 g ai/ha, read-out: Plant response rating (scale of 0 to 100), Soybean): 100% | plant injury at 62 g/ha (soybean (Glycine max); 62 g ai/ha, read-out: Plant response rating (scale of 0 to 100), Soybean): 100% | plant injury at 125 g/ha (soybean (Glycine max); 125 g ai/ha, scale 0 to 100 (0 no effect, 100 complete control), read-out: Soybean plant response rating): 100% | pest or weed control at 16 g/ha ([9]; 16 g ai/ha, read-out: Plant response rating (scale of 0 to 100), Johnsongrass): 55% | pest or weed control at 31 g/ha ([9]; 31 g ai/ha, read-out: Plant response rating (scale of 0 to 100), Johnsongrass): 60% | pest or weed control at 62 g/ha ([9]; 62 g ai/ha, read-out: Plant response rating (scale of 0 to 100), Johnsongrass): 75% | pest or weed control at 125 g/ha ([9]; 125 g ai/ha, scale 0 to 100 (0 no effect, 100 complete control), read-out: Johnsongrass plant response rating): 90%

— US8802597B2, “Herbicidal pyrimidines” (E I du Pont de Nemours and Company, priority 2003, dated 2014)
